The text below walks through data of ChEMBL document CHEMBL1138471, “Synthesis and inotropic evaluation of 1-substituted-N-(4,5-dihydro-1-methyl-[1,2,4]triazolo[4,3-a]quinolin-7-yl)piperidine-4-carboxamides” (2009).

Test [1] is described as follows: (§1) Positive inotropic activity in New Zealand White rabbit beating left atrium assessed as increase in stroke volume at 100 umol/L after 36 mins. Type of test: functional, Oryctolagus cuniculus, Cardiac atrium.
For test [2], the species on record is Oryctolagus cuniculus. Nature of the test: Negative inotropic activity in New Zealand White rabbit beating left atrium assessed as decrease in stroke volume at 100 umol/L after incubation for longer period. Type of test: functional, tissue-based. The conditions noted are these: Cardiac atrium.
Test [3] is filed under the species Oryctolagus cuniculus. Nature of the test: Positive inotropic activity in New Zealand White rabbit beating left atrium assessed as increase in stroke volume at 300 umol/L after 36 mins. Type of test: functional, tissue-based. To be noted: Cardiac atrium.
Test [4] is filed under the species Oryctolagus cuniculus. The experiment in a line: Positive inotropic activity in New Zealand White rabbit beating left atrium assessed as increase in stroke volume after 36 mins. Type of test: functional, tissue-based. To be noted: Cardiac atrium.
The species named for test [5] is Oryctolagus cuniculus. The test is described as §1. Type of test: functional. The conditions noted are these: Cardiac atrium.

The source made the active and inactive calls. The calls are words filed in the database; no cut-off is given here.

Take `Cc1[nH]c(=O)c(C#N)cc1-c1ccncc1` [MILRINONE]: the Activity in test [1] worked out at 6.36%. Still for that read-out and setting: for `Cc1nnc2n1-c1ccc(NC(=O)C3CCN(Cc4cccc(F)c4)CC3)cc1CC2` the value was 1.56%. With `COc1cc(CN2CCC(C(=O)Nc3ccc4c(c3)CCc3nnc(C)n3-4)CC2)ccc1OCc1ccccc1`, in test [1], the Activity is 5.19%.

On to `Cc1nnc2n1-c1ccc(NC(=O)C3CCN(Cc4ccc(Cl)cc4Cl)CC3)cc1CC2`, for which, in the test filed under Oryctolagus cuniculus [2], the outcome was Active. In test [1], the Activity worked out at 7.83%. In the case of `Cc1nnc2n1-c1ccc(NC(=O)C3CCN(Cc4ccccc4F)CC3)cc1CC2`, the result in the test filed under Oryctolagus cuniculus [3] was inactive. Moreover, the Activity entry in the test filed under Oryctolagus cuniculus [4] was “Dose-dependent effect”; in test [1], 11.92%. With `Cc1nnc2n1-c1ccc(NC(=O)C3CCN(Cc4cccc([N+](=O)[O-])c4)CC3)cc1CC2`, the Activity in test [1] was found to be 8.14%.

With `Cc1nnc2n1-c1ccc(NC(=O)C3CCN(Cc4ccc(Cl)cc4)CC3)cc1CC2`, in the test listed under Oryctolagus cuniculus [5], the outcome was inactive. Same read-out and setting: next, `COc1cc(CN2CCC(C(=O)Nc3ccc4c(c3)CCc3nnc(C)n3-4)CC2)ccc1OCc1cccc([N+](=O)[O-])c1`: “inactive”; `COc1ccc(CN2CCC(C(=O)Nc3ccc4c(c3)CCc3nnc(C)n3-4)CC2)cc1`: “inactive”; `Cc1ccc(CN2CCC(C(=O)Nc3ccc4c(c3)CCc3nnc(C)n3-4)CC2)cc1`: “inactive”. Still for that read-out and setting: next, `Cc1nnc2n1-c1ccc(NC(=O)C3CCN(Cc4ccccc4)CC3)cc1CC2`: “inactive”; `COc1cc(CN2CCC(C(=O)Nc3ccc4c(c3)CCc3nnc(C)n3-4)CC2)ccc1OCc1ccccc1Cl`: “inactive”. Same read-out and setting: for `Cc1nnc2n1-c1ccc(NC(=O)C3CCN(Cc4c(Cl)cccc4Cl)CC3)cc1CC2` the value was “inactive”; for `COc1cc(CN2CCC(C(=O)Nc3ccc4c(c3)CCc3nnc(C)n3-4)CC2)ccc1OCc1ccc(F)cc1`, “inactive”. On to `COc1cc(CN2CCC(C(=O)Nc3ccc4c(c3)CCc3nnc(C)n3-4)CC2)ccc1OCc1ccc(Cl)cc1`, for which, in the test listed under Oryctolagus cuniculus [2], the result was Active. Moreover, in test [1], the Activity came to 5.13%. The like results for `Cc1nnc2n1-c1ccc(NC(=O)C3CCN(Cc4ccccc4Cl)CC3)cc1CC2` were, in that order, “Active” and 0.4%.

Turning to `COc1cc(CN2CCC(C(=O)Nc3ccc4c(c3)CCc3nnc(C)n3-4)CC2)ccc1OCc1ccccc1F`, in the test filed under Oryctolagus cuniculus [3], the result was inactive. The Activity entry in the test listed under Oryctolagus cuniculus [4] is “Dose-dependent effect”; in test [1] it was 7.41%. As for `Cc1nnc2n1-c1ccc(NC(=O)C3CCN(Cc4ccccc4[N+](=O)[O-])CC3)cc1CC2`, the outcome in the test filed under Oryctolagus cuniculus [5] was inactive.

For the molecule `COc1cc(CN2CCC(C(=O)Nc3ccc4c(c3)CCc3nnc(C)n3-4)CC2)ccc1OCc1ccccc1[N+](=O)[O-]`, in the test listed under Oryctolagus cuniculus [5], the result was inactive. On to `COc1cc(CN2CCC(C(=O)Nc3ccc4c(c3)CCc3nnc(C)n3-4)CC2)ccc1OCc1cccc(Cl)c1`, for which the outcome in the test listed under Oryctolagus cuniculus [2] was Active. The Activity in test [1] was 5.56%. Turning to `Cc1nnc2n1-c1ccc(NC(=O)C3CCN(Cc4ccc5c(c4)OCO5)CC3)cc1CC2`, the Activity in test [1] is given as 2.96%. As to `COc1ccc(COc2ccc(CN3CCC(C(=O)Nc4ccc5c(c4)CCc4nnc(C)n4-5)CC3)cc2OC)cc1OC`, in the test filed under Oryctolagus cuniculus [5], the result was inactive. The same measure, in the same setting: next, `COc1cc(CN2CCC(C(=O)Nc3ccc4c(c3)CCc3nnc(C)n3-4)CC2)ccc1OCc1ccccc1Br`: “inactive”. For `COc1cc(CN2CCC(C(=O)Nc3ccc4c(c3)CCc3nnc(C)n3-4)CC2)ccc1OCc1cccc(F)c1`, in test [1], the Activity came out at 0.18%.

In the case of `Cc1nnc2n1-c1ccc(NC(=O)C3CCN(Cc4ccc(F)cc4)CC3)cc1CC2`, in the test filed under Oryctolagus cuniculus [5], the outcome was inactive. In the case of `Cc1nnc2n1-c1ccc(NC(=O)C3CCN(Cc4ccccc4Br)CC3)cc1CC2`, the Activity in test [1] was 1.67%. For the molecule `COc1ccc(COc2ccc(CN3CCC(C(=O)Nc4ccc5c(c4)CCc4nnc(C)n4-5)CC3)cc2OC)cc1`, the outcome in the test filed under Oryctolagus cuniculus [2] was Active. Besides, the Activity in test [1] was 6.08%. Regarding `COc1cc(CN2CCC(C(=O)Nc3ccc4c(c3)CCc3nnc(C)n3-4)CC2)ccc1OCc1ccc(C)cc1`, in the test listed under Oryctolagus cuniculus [5], the result was inactive. `COc1ccc(CN2CCC(C(=O)Nc3ccc4c(c3)CCc3nnc(C)n3-4)CC2)cc1OC`: in test [1], the Activity was 1.87%. Regarding `Cc1nnc2n1-c1ccc(NC(=O)C3CCN(Cc4cccc(Cl)c4)CC3)cc1CC2`, the Activity in test [1] was determined as 9.97%.

`COc1cc(CN2CCC(C(=O)Nc3ccc4c(c3)CCc3nnc(C)n3-4)CC2)ccc1OCc1c(Cl)cccc1Cl`: the result in the test listed under Oryctolagus cuniculus [5] was inactive. Regarding `COc1cc(CN2CCC(C(=O)Nc3ccc4c(c3)CCc3nnc(C)n3-4)CC2)ccc1OCc1ccc(Cl)cc1Cl`, in test [1], the Activity is 2.78%.
